# Laboratory results published in patent publication US11964979B2, “Camsylate salts of triazolopyrazine derivatives” (ABION Inc., priority 2022, dated 2024).
# Values joined by “and” are separate entries in the source; they are usually repeats but may differ in a detail not shown here. Equal values may be shown once. Read-outs that look alike come from different tables or passages of the source.
# Legend:
# [1] = 40° C./75% RH
# Procedure: Subsequently, all the solids were exposed to accelerated aging conditions (AAC) at 40° C./75% RH for 48 hours and re-measured by HT-XRPD to test their physical stability.
# [2] = DVS analysis (hygroscopicity); format: physicochemical
# Procedure: Differences in hygroscopicity (moisture uptake) of the various forms of a solid material provided a measure of their relative stability at increasing relative humidity. Moisture sorption isotherms of small samples were obtained using a DVS-1 system from Surface Measurement Systems (London, UK); this instrument is suitable for use with as little as a few milligrams of sample, with an accuracy of 0.1 μg. The relative humidity was varied during sorption-desorption-sorption (40-95-0-40% RH) at a constant temperature of 25° C., typically with a hold time of 60 minutes per step (10% relative humidity step). At the end of the DVS experiment the sample was measured by XRPD.
# The hygroscopicity was classified according to the European Pharmacopoeia Hygroscopicity classification.
# [3] = Physical and chemical stability study up to 2 years (XRPD, TGMS, HPLC)
# [4] = Approximate solubility determination by adding aliquots of solvent; format: physicochemical; settings: thermodynamic from solid
# Procedure: The approximate solubility was determined by adding small aliquots of solvent (50 μL up to 1 mL, 100 μL above 1 mL) to the solid starting material until complete dissolution was observed or a maximum volume of 4 mL was reached. Afterwards the solvents were evaporated and obtained solids were analyzed by HT-XRPD.
# [5] = Thermal stability study in solution (LCMS); format: physicochemical; settings: for Area % (LCMS): approx. 0.3 mg/mL
# Procedure: A thermal stability study was performed on ABN-401 to investigate the chemical stability of the starting material in solution when exposed to elevated temperatures. Solutions of ABN-401 were prepared in acetone, 1,2-dimethoxyethane, and acetonitrile with a concentration of approximately 0.3 mg/mL. Solutions were left at RT for 1 hour and successively, two aliquots of each solution were taken and heated at 50° C. and 80° C. for one hour. All these solutions were analyzed by LCMS. Additionally, the samples kept at RT were remeasured by LCMS after 24 hours to check the chemical degradation over time.
# Starting material characterization and purity assessment of the novel crystalline forms of the free base: • Method name: S19061_03.M • Sample: • Concentration: 0.3 mg/ml • Diluent: Acetonitrile
structure (smiles),measurement,setting,value
CC1(C)[C@@H]2CC[C@]1(CS(=O)(=O)O)C(=O)C2.CN1CCN(Cc2ccc(-c3cnc(N4CCO[C@H](Cn5nnc6ncc(-c7cnn(C)c7)nc65)C4)nc3)cc2)CC1 [Camp5],Form after AAC,"[1]; Exp. ID GEN21, THF",Camp2
CC1(C)[C@@H]2CC[C@]1(CS(=O)(=O)O)C(=O)C2.CN1CCN(Cc2ccc(-c3cnc(N4CCO[C@H](Cn5nnc6ncc(-c7cnn(C)c7)nc65)C4)nc3)cc2)CC1 (stereo in doubt) [Camp2],Form identified by HT-XRPD in the solid recovered after DVS,[2],Camp4
same,Change in mass at 80% RH,[2]; 25° C.,1.4%
same,Hygroscopicity (European Pharmacopeia Hygroscopicity classification),[2]; based on change in mass at 80% RH,slightly hygroscopic
same,Water vapor uptake,"[2]; first sorption half-cycle, at 95% RH, 25° C.",15.6%
same,Change in mass,"[2]; first sorption half-cycle, range 40→95% RH, 25° C.",14.1%
same,Change in mass,"[2]; last sorption half-cycle, range 0→40% RH, 25° C.",6.6%
same,Reversibility of water uptake,[2]; sorption-desorption-sorption 40-95-0-40% RH,irreversible
same,Form after AAC,"[1]; Exp. ID GEN17, Ethanol",Camp2
same,Form after AAC,"[1]; Exp. ID SSm60, ACN, API:CI 1:1",Camp2
same,API chemical purity (area %),[3]; 25° C./60% RH for 1 month,99.8%
same,Mass loss attributed to water (TGA/TGMS),[3]; 25° C./60% RH for 1 month,1.6%
same,Solid form by HT-XRPD after exposure,[3]; 25° C./60% RH for 1 month (GEN50),Camp2
same,API chemical purity (area %),[3]; 25° C./60% RH for 3 months,99.7%
same,Mass loss attributed to water (TGA/TGMS),[3]; 25° C./60% RH for 3 months,1.6%
same,Solid form by HT-XRPD after exposure,[3]; 25° C./60% RH for 3 months (GEN51),Camp2
same,API chemical purity (area %),[3]; 25° C./60% RH for 15 months,99.5% and 97.3%
same,Mass loss attributed to water (TGA/TGMS),[3]; 25° C./60% RH for 15 months,1.6%
same,Solid form by HT-XRPD after exposure,[3]; 25° C./60% RH for 15 months (GEN52),Camp2
same,API chemical purity (area %),[3]; 25° C./60% RH for 24 months,100%
same,Mass loss attributed to water (TGA/TGMS),[3]; 25° C./60% RH for 24 months,1.9%
same,Solid form by HT-XRPD after exposure,[3]; 25° C./60% RH for 24 months (GEN53),Camp2
same,Solid form conversion (HT-XRPD),[3]; 25° C./60% RH up to 24 months,no solid form conversion occurred
same,Solid form conversion (HT-XRPD),[3]; 40° C./75% RH,solid form conversions were observed after 3 months
same,API chemical purity (area %),[3]; 40° C./75% RH for 1 month,99.8%
same,Mass loss attributed to water (TGA/TGMS),[3]; 40° C./75% RH for 1 month,1.8%
same,Solid form by HT-XRPD after exposure,[3]; 40° C./75% RH for 1 month (GEN54),Camp2
same,API chemical purity (area %),[3]; 40° C./75% RH for 3 months,99.3%
same,Mass loss attributed to water (TGA/TGMS),[3]; 40° C./75% RH for 3 months,7.1%
same,Solid form by HT-XRPD after exposure,[3]; 40° C./75% RH for 3 months (GEN55),Camp4
same,API chemical purity (area %),[3]; 40° C./75% RH for 15 months,93.7%
same,Mass loss attributed to water (TGA/TGMS),[3]; 40° C./75% RH for 15 months,6.9%
same,Solid form by HT-XRPD after exposure,[3]; 40° C./75% RH for 15 months (GEN56),Camp4
same,API chemical purity (area %),[3]; 40° C./75% RH for 24 months,88.6%
same,Mass loss attributed to water (TGA/TGMS),[3]; 40° C./75% RH for 24 months,6.7%
same,Solid form by HT-XRPD after exposure,"[3]; 40° C./75% RH for 24 months (GEN57), E = Form E of the free base",Camp3+E
CC1(C)[C@@H]2CC[C@]1(CS(=O)(=O)O)C(=O)C2.CN1CCN(Cc2ccc(-c3cnc(N4CCO[C@H](Cn5nnc6ncc(-c7cnn(C)c7)nc65)C4)nc3)cc2)CC1 [Camp1],Form after AAC,"[1]; Exp. ID SSm14, Acetone, API:CI 1:1",Camp1
same,Form after AAC,"[1]; Exp. ID SSm37, 1,2-Dimethoxyethane, API:CI 1:1",Camp1
CN1CCN(Cc2ccc(-c3cnc(N4CCOC(Cn5nnc6ncc(-c7cnn(C)c7)nc65)C4)nc3)cc2)CC1 (stereo not shown) [ABN-401],solubility,"[4]; organic solvent or mixture, 1,2-Dimethoxyethane (SAS6)",12.7 to 13.8 mg/mL
same,solubility,"[4]; organic solvent or mixture, 1,4-Dioxane (SAS4)",> 199 mg/mL
same,solubility,"[4]; organic solvent or mixture, Acetone (SAS1)",22.1 to 25.6 mg/mL
same,solubility,"[4]; organic solvent or mixture, Chloroform (SAS3)",> 311 mg/mL
same,solubility,"[4]; organic solvent or mixture, Ethyl acetate (SAS5)",4.4 to 4.6 mg/mL
same,solubility,"[4]; organic solvent or mixture, Isopropanol (SAS7)",< 2.7 mg/mL
same,solubility,"[4]; organic solvent or mixture, Methanol (SAS8)",< 2.9 mg/mL
same,solubility,"[4]; organic solvent or mixture, Tetrahydrofuran (SAS9)",> 181 mg/mL
same,solubility,[4]; Water (SAS10),< 3.1 mg/mL
same,Area % (LCMS),"[5]; 1,2-dimethoxyethane solution, 1 h/50° C.",98.6%
same,Area % (LCMS),"[5]; 1,2-dimethoxyethane solution, 1 h/80° C.",97.7%
same,Area % (LCMS),"[5]; 1,2-dimethoxyethane solution, 1 h/RT",99.0%
same,Area % (LCMS),"[5]; 1,2-dimethoxyethane solution, 24 h/RT",98.8%
same,Area % (LCMS),"[5]; ACN solution, 1 h/50° C.",99.0%
same,Area % (LCMS),"[5]; ACN solution, 1 h/80° C.",98.7%
same,Area % (LCMS),"[5]; ACN solution, 1 h/RT",99.0%
same,Area % (LCMS),"[5]; ACN solution, 24 h/RT",98.1%
same,Area % (LCMS),"[5]; Acetone solution, 1 h/50° C.",99.0%
same,Area % (LCMS),"[5]; Acetone solution, 1 h/80° C.",99.0%
same,Area % (LCMS),"[5]; Acetone solution, 1 h/RT",98.8%
same,Area % (LCMS),"[5]; Acetone solution, 24 h/RT",98.5%
same,Chemical degradation in solution,"[5]; samples kept at 50° C. and 80° C. for one hour, acetone, 1,2-dimethoxyethane, acetonitrile",No significant chemical degradation was observed
same,Chemical degradation (LCMS),[3]; 24 months at 25° C./60% RH and at 40° C./75% RH,chemical degradation is occurring at both conditions
same,Mass loss attributed to water (TGA/TGMS),[3]; 25° C./60% RH for 1 month,3.7%
same,Mass loss attributed to water (TGA/TGMS),[3]; 25° C./60% RH for 3 months,4.1%
same,Mass loss attributed to water (TGA/TGMS),[3]; 25° C./60% RH for 15 months,3.3%
same,API chemical purity (area %),[3]; 25° C./60% RH for 24 months,87.2%
same,Mass loss attributed to water (TGA/TGMS),[3]; 25° C./60% RH for 24 months,5.3%
same,Mass loss attributed to water (TGA/TGMS),[3]; 40° C./75% RH for 1 month,4.0%
same,Mass loss attributed to water (TGA/TGMS),[3]; 40° C./75% RH for 3 months,4.4%
same,Mass loss attributed to water (TGA/TGMS),[3]; 40° C./75% RH for 15 months,3.7%
same,API chemical purity (area %),[3]; 40° C./75% RH for 24 months,90.7%
same,Mass loss attributed to water (TGA/TGMS),[3]; 40° C./75% RH for 24 months,5.2%
CC1(C)[C@@H]2CC[C@]1(CS(=O)(=O)O)C(=O)C2.CN1CCN(Cc2ccc(-c3cnc(N4CCO[C@H](Cn5nnc6ncc(-c7cnn(C)c7)nc65)C4)nc3)cc2)CC1 [Camp4],Form after AAC,"[1]; Exp. ID GEN16, Chloroform",Camp4
same,Form after AAC,"[1]; Exp. ID GEN19, Heptane",Camp4
same,Form after AAC,"[1]; Exp. ID GEN23, IPA/Water (97/3), lc = low crystalline",lc
same,Form after AAC,"[1]; Exp. ID GEN25, 1,4-Dioxane/Water (96/4)",Camp4
same,Form after AAC,"[1]; Exp. ID GEN26, THF/Water (95/5)",Camp4
